Like-named read-outs stand apart in the source and are kept apart here.
What was measured:
[1] = Mouse plasma pharmacokinetics, single PO or IV dose; assay type: in vivo, female C57BL/6 mice; details: for AUCinf / CL / Cmax / Half-life / Vss / CL/F / Tmax / V/F: mouse plasma; for bioavailability: po, read-out: Mouse F (oral bioavailability)
Text: Studies were undertaken to determine the plasma pharmacokinetics of SJ733 and SJ311. These studies included: (i) single oral gavage (PO) or intravenous (IV) dose administration to female C57BL/6 mice; (ii) single PO or IV dose administration to male Sprague Dawley (SD) rats; (iii) single PO or IV dose administration to male beagle dogs; (iv) toxicokinetic (TK) study following single PO administration to male SD rats. The PO and IV formulation used for mouse studies at SJCRH was 1% hydroxypropyl-beta-cyclodextrin (w/v), 10% ethanol (v/v), 10% propylene glycol (v/v), 40% PEG-400 (v/v) and 39% PBS (pH 7.4) isotonic (v/v). Compounds were dosed orally as suspensions, and intravenously as filtered solutions. Compound concentrations were confirmed post filtration using UV spectroscopy. The IV formulation used for rat studies (Monash University) was the same as that used for mice. For PO dosing to rats (Monash University) at 2 mg/kg, a suspension formulation was used containing 0.5% (w/v) hydroxypropyl methylcellulose, 0.5% (v/v) benzyl alcohol and 0.4% (v/v) Tween 80. The formulation used for rat studies at SRI (PO, high dose) was the same as that used in mouse PK studies. The formulation for the high dose TK study at SRI was 0.5% methylcellulose in sterile water. The formulation used for dog studies was the same as that used in mouse PK studies. The PO and IV PK of SJ733 and SJ311 were studied in female C57BL/6 mice. Mice had access to water and food ad libitum throughout the pre- and post-dose sampling period. Doses were administered at 15 mg/kg for IV and 10–200 mg/kg for PO with 20 mice in each dosage group. Two samples were taken from each mouse, with the first sample being a retro-orbital bleed (~ 200 µL) at the indicated time point (5, 15, 30 min, 1, 4, 24 h) and the second being terminal cardiac puncture (~ 500 µL) at the indicated time point (usually 48 h). EDTA disodium was used as anticoagulant and added to whole blood (10% volume of EDTA for 1% w/v final concentration) followed by centrifugation at 13,000 rpm for 2 min. Plasma was collected and stored frozen at -20 °C until analysis. For studies at SJCRH, all blood samples were kept on wet ice after collection and processed to plasma within 30 min of collection. Plasma samples were kept on dry ice and transferred to ≤ − 20 °C until analysis. Mouse plasma samples were extracted via protein precipitation with cold acetonitrile. The detection of the SJ733, SJ311, and warfarin (IS) was conducted by LC–MS with SIR or LC–MS/MS with MRM detection. Aliquots (3 µL) were injected onto a Waters Acquity UPLC equipped with an ABI Sciex 6500 Qtrap MS/MS and separated using an Acquity BEH C18 column (50 × 2.1 mm, 1.7 µm) with a methanol–water gradient containing 0.1% formic acid. Plasma concentration time (Ct) data for SJ733 and SJ311 were grouped by nominal time point, and the mean Ct values were subjected to noncompartmental analysis (NCA) using Phoenix WinNonlin 8.1 (Certara USA, Inc., Princeton, NJ). For all experiments, the area under the Ct and first moment curves (AUC, AUMC) were estimated using the “linear up log down” method. The terminal phase was defined as at least three time points at the end of the Ct profile, and the elimination rate constant (Kel) was estimated using an unweighted log-linear regression of the terminal phase. The terminal elimination half-life (T1/2) was estimated as 0.693/Kel, and the AUC from time 0 to infinity ([…]) was estimated as the AUC to the last time point (AUClast) + Clast (predicted)/Kel with the […] similarly calculated. Additional parameters estimated included observed maximum concentration (Cmax), time of Cmax (Tmax), concentration at the last observed time point (Clast), time of Clast (Tlast), and the apparent oral terminal volume of distribution (V/F). The apparent oral clearance (CL/F), systemic clearance (CL) and volume of distribution at steady state (Vss) were all estimated using standard formulae [19].

[2] = Microsomal stability, mouse; assay type: in vitro ADME; details: for CLint in vivo: scaled up using PBSF
Method: The metabolic stability assay was performed by incubating compounds individually (0.8, 4, or 20 µM) with mouse, rat, dog and human liver microsomes (Fisher, 0.5 mg/mL protein concentration) at 37 °C. The metabolic reaction was initiated by the addition of a NADPH-regenerating system and quenched at various time points by the addition of acetonitrile according to a published method.
The remaining concentration of each compound was measured as a ratio of peak area to the internal standard. The log peak area ratio was plotted vs. time (h), and the slope was determined to calculate the elimination rate constant [k = (− 2.303) * slope]. If deviation from first order kinetics was evident, only the initial linear portion of the plot was used to determine the rate constate, k. The half-life (h) was calculated as t1/2 = 0.693/k. Intrinsic clearance in vitro was calculated as CLintin vitro = (1000)*(0.693/t1/2*60)/0.5, where microsomal concentration in the reaction solution was 0.5 mg/mL; 1000 and 60 are scaling factors for volume (µL) and time (min), respectively. The intrinsic in vitro clearance was scaled to the intrinsic in vivo clearance using physiology based scaling factor (PBSF): CLint in vivo= CLint in vitro *PBSF: (microsome protein/gram liver) * (gram liver/kg b.w.), with PBSF: 47 (mouse), 47(rat), 58 (dog), 32 (human); and liver weight proportions: 54.9 (mouse), 36.6 (rat), 32.9 (dog) 25.7 (human).

[3] = mouse, single PO 100 mg/kg vs IV
[4] = mouse microsomes, 20, 4, 0.8 µM
[5] = mouse microsomes, 0.8 µM, independent replicate to Table 4
[6] = mouse microsomes, 4 µM, independent replicate to Table 4
[7] = mouse microsomes, 20 µM, independent replicate to Table 4
[8] = female, C57BL/6, mouse, plasma, mouse, summary over the oral doses studied
[9] = female, C57BL/6, single IV 15 mg/kg, read-out: Half-life

| bioavailability [1, 8] [%] | Half-life [1, 9] [h] | CLint ([2]; mouse microsomes, 0.8 µM) [µl/min/mg protein] | Compound | AUCinf ([1]; single IV 15 mg/kg) [µM·h] | CL ([1]; single IV 15 mg/kg) [mL/min/kg] | Cmax ([1]; single IV 15 mg/kg) [µM] | Half-life ([1]; single IV 15 mg/kg) [h] | Vss ([1]; single IV 15 mg/kg) [L/kg] | AUCinf ([1]; single PO 100 mg/kg) [µM·h] | CL/F ([1]; single PO 100 mg/kg) [mL/min/kg] | Cmax ([1]; single PO 100 mg/kg) [µM] | Half-life ([1]; single PO 100 mg/kg) [h] | Tmax ([1]; single PO 100 mg/kg) [h] | F [1, 3] [%] | CLint in vitro [2, 5] [µl/min/mg protein] | CLint in vivo ([2]; mouse microsomes, 0.8 µM) [mL/min/kg] | CLint in vitro [2, 6] [µl/min/mg protein] | CLint in vivo ([2]; mouse microsomes, 4 µM) [mL/min/kg] | CLint in vitro [2, 7] [µl/min/mg protein] | CLint in vivo ([2]; mouse microsomes, 20 µM) [mL/min/kg] | also measured |
| --- | --- | --- | --- | --- | --- | --- | --- | --- | --- | --- | --- | --- | --- | --- | --- | --- | --- | --- | --- | --- | --- |
| 65 to 81 | 1.38 to 1.65 | – | N#Cc1cc(NC(=O)[C@H]2c3ccccc3C(=O)N(CC(F)(F)F)[C@@H]2c2cccnc2)ccc1F (racemic) [SJ733] | – | – | – | – | – | – | – | – | – | – | – | – | – | – | – | – | – | clearance ([1]; female, C57BL/6, mouse, plasma, observed in mice, read-out: in vivo clearance (converted)): ~50 mL/min/kg |
| 22 to 23 | 1.38 to 1.56 | – | N#Cc1cc(NC(=O)[C@H]2c3ccccc3C(=O)N(CC(F)(F)F)[C@@H]2c2cn[nH]c2)ccc1F [SJ311] | – | – | – | – | – | – | – | – | – | – | – | – | – | – | – | – | – | Mouse F (oral bioavailability) ([1]; mouse, summary over the oral doses studied): 23% |

Further lines, the compound ahead of its results:

| Compound | bioavailability [1, 8] [%] | Half-life [1, 9] [h] | CLint ([2]; mouse microsomes, 0.8 µM) [µl/min/mg protein] | AUCinf ([1]; single IV 15 mg/kg) [µM·h] | CL ([1]; single IV 15 mg/kg) [mL/min/kg] | Cmax ([1]; single IV 15 mg/kg) [µM] | Half-life ([1]; single IV 15 mg/kg) [h] | Vss ([1]; single IV 15 mg/kg) [L/kg] | AUCinf ([1]; single PO 100 mg/kg) [µM·h] | CL/F ([1]; single PO 100 mg/kg) [mL/min/kg] | Cmax ([1]; single PO 100 mg/kg) [µM] | Half-life ([1]; single PO 100 mg/kg) [h] | Tmax ([1]; single PO 100 mg/kg) [h] | F [1, 3] [%] | CLint in vitro [2, 5] [µl/min/mg protein] | CLint in vivo ([2]; mouse microsomes, 0.8 µM) [mL/min/kg] | CLint in vitro [2, 6] [µl/min/mg protein] | CLint in vivo ([2]; mouse microsomes, 4 µM) [mL/min/kg] | CLint in vitro [2, 7] [µl/min/mg protein] | CLint in vivo ([2]; mouse microsomes, 20 µM) [mL/min/kg] | also measured |
| --- | --- | --- | --- | --- | --- | --- | --- | --- | --- | --- | --- | --- | --- | --- | --- | --- | --- | --- | --- | --- | --- |
| N#Cc1cc(NC(=O)C2c3ccccc3C(=O)N(CC(F)(F)F)C2c2cn[nH]c2)ccc1F (racemic) [(r)-SJ311] | – | – | – | 20.7 | 27.2 | 13.4 | 1.56 | 2.11 | 42 | 89 | 10.5 ± 5.3 | 4.20 | 0.5 | 23.1 | – | – | – | – | – | – | V/F ([1]; single PO 100 mg/kg): 32.4 L/kg; CLint in vitro [2, 4]: <7 µl/min/mg protein; CLint in vivo [2, 4]: < 13.5 mL/min/kg |
| N#Cc1cc(NC(=O)C2c3ccccc3C(=O)N(CC(F)(F)F)C2c2cccnc2)ccc1F (racemic) [(r)-SJ733] | – | – | – | 10.8 | 49.7 | 11.3 | 1.52 | 2.41 | – | – | – | – | – | – | 9.1 ± 0.5 | 21.4 ± 1.3 | 10 ± 0.5 | 23.4 ± 1.1 | <7 | < 13.5 | AUCinf ([1]; single PO 50 mg/kg): 28 µM·h; CL/F ([1]; single PO 50 mg/kg): 67 mL/min/kg; Cmax ([1]; single PO 50 mg/kg): 10.1 ± 4.5 µM; Half-life ([1]; single PO 50 mg/kg): 1.72 h; Tmax ([1]; single PO 50 mg/kg): 0.5 h; AUCinf ([1]; single PO 200 mg/kg): 155.7 µM·h; CL/F ([1]; single PO 200 mg/kg): 54.2 mL/min/kg; Cmax ([1]; single PO 200 mg/kg): 12.7 ± 3.2 µM; Half-life ([1]; single PO 200 mg/kg): 14.1 h; Tmax ([1]; single PO 200 mg/kg): 5 h; V/F ([1]; single PO 200 mg/kg): 3.23 L/kg; F ([1]; mouse, single PO 50 mg/kg vs IV): 70%; F ([1]; mouse, single PO 200 mg/kg vs IV): 98% |
| N#Cc1cc(NC(=O)[C@H]2c3ccccc3C(=O)N(CC(F)(F)F)[C@@H]2c2cn[nH]c2)ccc1F [(+)-SJ311] | – | – | < 7 | – | – | – | – | – | – | – | – | – | – | – | – | – | – | – | – | – | t1/2 ([2]; mouse microsomes, 0.8 µM): > 4 h |
| N#Cc1cc(NC(=O)[C@H]2c3ccccc3C(=O)N(CC(F)(F)F)[C@@H]2c2cccnc2)ccc1F [(+)-SJ733] | – | – | 35.4 ± 2.1 | – | – | – | – | – | 53 | 67 | 11.7 ± 1.2 | 3.17 | 0.5 | 80.8 | 33.9 ± 1.3 | 79.3 ± 3.0 | 27.2 ± 1.3 | 63.8 ± 2.9 | 15.9 ± 2.2 | 37.3 ± 5.3 | AUCinf ([1]; single PO 10 mg/kg): 4.27 µM·h; CL/F ([1]; single PO 10 mg/kg): 83.3 mL/min/kg; Cmax ([1]; single PO 10 mg/kg): 1.38 ± 0.21 µM; Half-life ([1]; single PO 10 mg/kg): 3.63 h; Tmax ([1]; single PO 10 mg/kg): 0.5 h; V/F ([1]; single PO 10 mg/kg): 26.2 L/kg; F ([1]; mouse, single PO 10 mg/kg vs IV): 65%; t1/2 ([2]; mouse microsomes, 0.8 µM): 0.7 ± 0.1 h |

— PMC7893776, “Selecting an anti-malarial clinical candidate from two potent dihydroisoquinolones” (Malaria Journal, 2021)
